{"source": "ChEMBL document CHEMBL3045042", "about": "“The discovery of SYP-10913 and SYP-11277: novel strobilurin acaricides” (Pest Manag Sci, 2011)", "key": {"Tetranychus cinnabarinus [1]": {"tested_on": "Tetranychus cinnabarinus", "assay": "Acaricidal activity against Tetranychus cinnabarinus (carmine spider mite) in kidney bean leaf assessed as mortality at 10 mg/L measured after 72 hr of spray", "assay_type": "functional"}, "Tetranychus cinnabarinus [2]": {"tested_on": "Tetranychus cinnabarinus", "assay": "Acaricidal activity against Tetranychus cinnabarinus (carmine spider mite) in kidney bean leaf assessed as mortality at 40 mg/L measured after 72 hr of spray", "assay_type": "functional"}, "Salmonella typhimurium": {"tested_on": "Salmonella typhimurium", "assay": "Genotoxicity in Salmonella enterica subsp. enterica serovar Typhimurium by Ames test", "assay_type": "toxicity, organism-based"}, "Oryctolagus cuniculus [3]": {"species_on_record": "Oryctolagus cuniculus", "assay": "Toxicity in Oryctolagus cuniculus (rabbit) assessed as eye irritation", "assay_type": "organism-based", "conditions": "in vivo"}, "Oryctolagus cuniculus [4]": {"species_on_record": "Oryctolagus cuniculus", "assay": "Toxicity in Oryctolagus cuniculus (rabbit) assessed as skin irritation", "assay_type": "organism-based", "conditions": "in vivo"}, "[5]": {"assay": "Acute percutaneous toxicity in Mus musculus (mouse)", "assay_type": "organism-based", "conditions": "in vivo, topical or ocular"}, "[6]": {"assay": "Acute oral toxicity in Mus musculus (mouse)", "assay_type": "organism-based", "conditions": "in vivo"}, "Tetranychus cinnabarinus [7]": {"tested_on": "Tetranychus cinnabarinus", "assay": "Acaricidal activity against eggs of Tetranychus cinnabarinus (carmine spider mite) in kidney bean leaf assessed as unhatched eggs measured after 120 hr", "assay_type": "functional"}, "Tetranychus cinnabarinus [8]": {"tested_on": "Tetranychus cinnabarinus", "assay": "Acaricidal activity against nymphs of Tetranychus cinnabarinus (carmine spider mite) in kidney bean leaf assessed as mortality measured after 120 hr", "assay_type": "functional"}, "Tetranychus cinnabarinus [9]": {"tested_on": "Tetranychus cinnabarinus", "assay": "Acaricidal activity against Tetranychus cinnabarinus (carmine spider mite) in kidney bean leaf assessed as mortality at 1.25 mg/L measured after 72 hr of spray", "assay_type": "functional"}, "Tetranychus cinnabarinus [10]": {"tested_on": "Tetranychus cinnabarinus", "assay": "Acaricidal activity against Tetranychus cinnabarinus (carmine spider mite) in kidney bean leaf assessed as mortality at 2.5 mg/L measured after 72 hr of spray", "assay_type": "functional"}, "Tetranychus cinnabarinus [11]": {"tested_on": "Tetranychus cinnabarinus", "assay": "Acaricidal activity against Tetranychus cinnabarinus (carmine spider mite) in kidney bean leaf assessed as mortality at 5 mg/L measured after 72 hr of spray", "assay_type": "functional"}}}
{"smiles": "CO/C=C(/C(=O)OC)c1ccccc1COc1cc(C(F)(F)F)nc(Nc2ccc(C(F)(F)F)cc2)n1", "values": [{"measurement": "mortality at 10 µg/mL", "setting": "Tetranychus cinnabarinus [1]", "result": 0, "unit": "%"}, {"measurement": "mortality at 40 µg/mL", "setting": "Tetranychus cinnabarinus [2]", "result": 0, "unit": "%"}]}
{"smiles": "CO/C=C(/C(=O)OC)c1ccccc1COc1cc(C(F)(F)F)nc(Nc2ccc(OC)cc2)n1", "values": [{"measurement": "mortality at 10 µg/mL", "setting": "Tetranychus cinnabarinus [1]", "result": 0, "unit": "%"}, {"measurement": "mortality at 40 µg/mL", "setting": "Tetranychus cinnabarinus [2]", "result": 0, "unit": "%"}]}
{"smiles": "CO/C=C(/C(=O)OC)c1ccccc1COc1cc(C(F)(F)F)nc(Nc2ccc(C)cc2)n1", "values": [{"measurement": "mortality at 10 µg/mL", "setting": "Tetranychus cinnabarinus [1]", "result": 0, "unit": "%"}, {"measurement": "mortality at 40 µg/mL", "setting": "Tetranychus cinnabarinus [2]", "result": 0, "unit": "%"}]}
{"smiles": "CO/C=C(/C(=O)OC)c1ccccc1COc1cc(C(F)(F)F)nc(Nc2cccc(C)c2)n1", "values": [{"measurement": "mortality at 10 µg/mL", "setting": "Tetranychus cinnabarinus [1]", "result": 20, "unit": "%"}, {"measurement": "mortality at 40 µg/mL", "setting": "Tetranychus cinnabarinus [2]", "result": 90, "unit": "%"}]}
{"smiles": "CO/C=C(/C(=O)OC)c1ccccc1COc1cc(C(F)(F)F)nc(Nc2ccccc2C)n1", "values": [{"measurement": "mortality at 10 µg/mL", "setting": "Tetranychus cinnabarinus [1]", "result": 0, "unit": "%"}, {"measurement": "mortality at 40 µg/mL", "setting": "Tetranychus cinnabarinus [2]", "result": 100, "unit": "%"}]}
{"smiles": "CO/C=C(/C(=O)OC)c1ccccc1COc1cc(C(F)(F)F)nc(Nc2ccc(C)cc2C)n1", "values": [{"measurement": "mortality at 10 µg/mL", "setting": "Tetranychus cinnabarinus [1]", "result": 76, "unit": "%"}, {"measurement": "mortality at 40 µg/mL", "setting": "Tetranychus cinnabarinus [2]", "result": 100, "unit": "%"}]}
{"smiles": "CO/C=C(/C(=O)OC)c1ccccc1COc1cc(C(F)(F)F)nc(Nc2cc(C)ccc2C)n1", "values": [{"measurement": "mortality at 10 µg/mL", "setting": "Tetranychus cinnabarinus [1]", "result": 0, "unit": "%"}, {"measurement": "mortality at 40 µg/mL", "setting": "Tetranychus cinnabarinus [2]", "result": 0, "unit": "%"}]}
{"smiles": "CO/C=C(/C(=O)OC)c1ccccc1COc1cc(C(F)(F)F)nc(Nc2ccc(C)c(C)c2)n1", "values": [{"measurement": "mortality at 10 µg/mL", "setting": "Tetranychus cinnabarinus [1]", "result": 20, "unit": "%"}, {"measurement": "mortality at 40 µg/mL", "setting": "Tetranychus cinnabarinus [2]", "result": 97, "unit": "%"}]}
{"smiles": "CO/C=C(/C(=O)OC)c1ccccc1COc1cc(C(F)(F)F)nc(Nc2cccc(Cl)c2Cl)n1", "values": [{"measurement": "mortality at 10 µg/mL", "setting": "Tetranychus cinnabarinus [1]", "result": 100, "unit": "%"}, {"measurement": "mortality at 40 µg/mL", "setting": "Tetranychus cinnabarinus [2]", "result": 100, "unit": "%"}, {"measurement": "Activity", "setting": "Salmonella typhimurium", "result": "Non-toxic"}, {"measurement": "Activity", "setting": "Oryctolagus cuniculus [3]", "result": "Toxic"}, {"measurement": "Activity", "setting": "Oryctolagus cuniculus [4]", "result": "Non-toxic"}, {"measurement": "LD50", "setting": "[5]", "result": "≥ 2150", "unit": "mg/kg"}, {"measurement": "LD50", "setting": "[6]", "result": "≥ 4640", "unit": "mg/kg"}, {"measurement": "LC50", "setting": "Tetranychus cinnabarinus [7]", "result": 4.75, "unit": "µg/mL"}, {"measurement": "LC50", "setting": "Tetranychus cinnabarinus [8]", "result": 0.34, "unit": "µg/mL"}, {"measurement": "mortality at 1.25 µg/mL", "setting": "Tetranychus cinnabarinus [9]", "result": 75, "unit": "%"}, {"measurement": "mortality at 2.5 µg/mL", "setting": "Tetranychus cinnabarinus [10]", "result": 95, "unit": "%"}, {"measurement": "mortality at 5 µg/mL", "setting": "Tetranychus cinnabarinus [11]", "result": 99, "unit": "%"}]}
{"smiles": "CO/C=C(/C(=O)OC)c1ccccc1COc1cc(C(F)(F)F)nc(Nc2cc(Cl)ccc2Cl)n1", "values": [{"measurement": "mortality at 10 µg/mL", "setting": "Tetranychus cinnabarinus [1]", "result": 20, "unit": "%"}, {"measurement": "mortality at 40 µg/mL", "setting": "Tetranychus cinnabarinus [2]", "result": 100, "unit": "%"}]}
{"smiles": "CO/C=C(/C(=O)OC)c1ccccc1COc1cc(C(F)(F)F)nc(Nc2c(Cl)cccc2Cl)n1", "values": [{"measurement": "mortality at 10 µg/mL", "setting": "Tetranychus cinnabarinus [1]", "result": 0, "unit": "%"}, {"measurement": "mortality at 40 µg/mL", "setting": "Tetranychus cinnabarinus [2]", "result": 0, "unit": "%"}]}
{"smiles": "CO/C=C(/C(=O)OC)c1ccccc1COc1cc(C(F)(F)F)nc(Nc2ccc(Cl)c(Cl)c2)n1", "values": [{"measurement": "mortality at 10 µg/mL", "setting": "Tetranychus cinnabarinus [1]", "result": 0, "unit": "%"}, {"measurement": "mortality at 40 µg/mL", "setting": "Tetranychus cinnabarinus [2]", "result": 73, "unit": "%"}]}
{"smiles": "CO/C=C(/C(=O)OC)c1ccccc1COc1cc(C(F)(F)F)nc(Nc2cc(Cl)cc(Cl)c2)n1", "values": [{"measurement": "mortality at 10 µg/mL", "setting": "Tetranychus cinnabarinus [1]", "result": 0, "unit": "%"}, {"measurement": "mortality at 40 µg/mL", "setting": "Tetranychus cinnabarinus [2]", "result": 0, "unit": "%"}]}
{"smiles": "CO/C=C(/C(=O)OC)c1ccccc1COc1cc(C(F)(F)F)nc(Nc2ccc(Cl)c(Cl)c2Cl)n1", "values": [{"measurement": "mortality at 10 µg/mL", "setting": "Tetranychus cinnabarinus [1]", "result": 100, "unit": "%"}, {"measurement": "mortality at 40 µg/mL", "setting": "Tetranychus cinnabarinus [2]", "result": 100, "unit": "%"}, {"measurement": "mortality at 1.25 µg/mL", "setting": "Tetranychus cinnabarinus [9]", "result": 75, "unit": "%"}, {"measurement": "mortality at 2.5 µg/mL", "setting": "Tetranychus cinnabarinus [10]", "result": 98, "unit": "%"}, {"measurement": "mortality at 5 µg/mL", "setting": "Tetranychus cinnabarinus [11]", "result": 100, "unit": "%"}]}
{"smiles": "CO/C=C(/C(=O)OC)c1ccccc1COc1cc(C(F)(F)F)nc(Nc2cc(Cl)c(Cl)cc2Cl)n1", "values": [{"measurement": "mortality at 10 µg/mL", "setting": "Tetranychus cinnabarinus [1]", "result": 0, "unit": "%"}, {"measurement": "mortality at 40 µg/mL", "setting": "Tetranychus cinnabarinus [2]", "result": 0, "unit": "%"}]}
{"smiles": "CO/C=C(/C(=O)OC)c1ccccc1COc1cc(C(F)(F)F)nc(Nc2ccc(Cl)c(C)c2Cl)n1", "values": [{"measurement": "mortality at 10 µg/mL", "setting": "Tetranychus cinnabarinus [1]", "result": 100, "unit": "%"}, {"measurement": "mortality at 40 µg/mL", "setting": "Tetranychus cinnabarinus [2]", "result": 100, "unit": "%"}, {"measurement": "mortality at 1.25 µg/mL", "setting": "Tetranychus cinnabarinus [9]", "result": 79, "unit": "%"}, {"measurement": "mortality at 2.5 µg/mL", "setting": "Tetranychus cinnabarinus [10]", "result": 92, "unit": "%"}, {"measurement": "mortality at 5 µg/mL", "setting": "Tetranychus cinnabarinus [11]", "result": 100, "unit": "%"}]}
{"smiles": "CO/C=C(/C(=O)OC)c1ccccc1COc1cc(C(F)(F)F)nc(Nc2cccc(Cl)c2C)n1", "values": [{"measurement": "mortality at 10 µg/mL", "setting": "Tetranychus cinnabarinus [1]", "result": 0, "unit": "%"}, {"measurement": "mortality at 40 µg/mL", "setting": "Tetranychus cinnabarinus [2]", "result": 0, "unit": "%"}]}
{"smiles": "CO/C=C(/C(=O)OC)c1ccccc1COc1cc(C(F)(F)F)nc(Nc2ccc(Cl)cc2C)n1", "values": [{"measurement": "mortality at 10 µg/mL", "setting": "Tetranychus cinnabarinus [1]", "result": 0, "unit": "%"}, {"measurement": "mortality at 40 µg/mL", "setting": "Tetranychus cinnabarinus [2]", "result": 0, "unit": "%"}]}
{"smiles": "CO/C=C(/C(=O)OC)c1ccccc1COc1cc(C(F)(F)F)nc(Nc2ccc(Cl)cc2)n1", "values": [{"measurement": "mortality at 10 µg/mL", "setting": "Tetranychus cinnabarinus [1]", "result": 0, "unit": "%"}, {"measurement": "mortality at 40 µg/mL", "setting": "Tetranychus cinnabarinus [2]", "result": 0, "unit": "%"}]}
{"smiles": "CO/C=C(/C(=O)OC)c1ccccc1COc1cc(C(F)(F)F)nc(OC(C)C)n1", "note": "[FLUACRYPYRIM]", "values": [{"measurement": "mortality at 10 µg/mL", "setting": "Tetranychus cinnabarinus [1]", "result": 95, "unit": "%"}, {"measurement": "mortality at 40 µg/mL", "setting": "Tetranychus cinnabarinus [2]", "result": 100, "unit": "%"}, {"measurement": "LC50", "setting": "Tetranychus cinnabarinus [7]", "result": 5.95, "unit": "µg/mL"}, {"measurement": "LC50", "setting": "Tetranychus cinnabarinus [8]", "result": 0.64, "unit": "µg/mL"}, {"measurement": "mortality at 1.25 µg/mL", "setting": "Tetranychus cinnabarinus [9]", "result": 30, "unit": "%"}, {"measurement": "mortality at 2.5 µg/mL", "setting": "Tetranychus cinnabarinus [10]", "result": 65, "unit": "%"}, {"measurement": "mortality at 5 µg/mL", "setting": "Tetranychus cinnabarinus [11]", "result": 94, "unit": "%"}]}
{"smiles": "CO/C=C(/C(=O)OC)c1ccccc1COc1cc(C(F)(F)F)nc(Nc2ccc(Cl)cc2Cl)n1", "note": "[SYP-11277]", "values": [{"measurement": "mortality at 10 µg/mL", "setting": "Tetranychus cinnabarinus [1]", "result": 100, "unit": "%"}, {"measurement": "mortality at 40 µg/mL", "setting": "Tetranychus cinnabarinus [2]", "result": 100, "unit": "%"}, {"measurement": "LC50", "setting": "Tetranychus cinnabarinus [7]", "result": 3.63, "unit": "µg/mL"}, {"measurement": "LC50", "setting": "Tetranychus cinnabarinus [8]", "result": 0.37, "unit": "µg/mL"}, {"measurement": "mortality at 1.25 µg/mL", "setting": "Tetranychus cinnabarinus [9]", "result": 90, "unit": "%"}, {"measurement": "mortality at 2.5 µg/mL", "setting": "Tetranychus cinnabarinus [10]", "result": 98, "unit": "%"}, {"measurement": "mortality at 5 µg/mL", "setting": "Tetranychus cinnabarinus [11]", "result": 100, "unit": "%"}]}
